A short description of data set [1]: Cytotoxicity in Vero cells (SARS-CoV-2 test). It is filed as cell-based. Conditions: African green monkey.
Data set [2] concerns 2019 novel coronavirus (SARS-CoV-2). The data set is described as follows: Inhibition of SARS-CoV-2 replication in Vero cells (qRT-PCR). It is filed as cell-based. Conditions: Severe acute respiratory syndrome coronavirus 2, 48 hours, virus copy number in supernatant by qRT-PCR.
The subject of data set [3] is respiratory syncytial virus (RSV). The data set is described as follows: Inhibition of respiratory syncytial virus replication by CPE in HEp-2. It is filed as cell-based. Conditions: human respiratory syncytial virus, HEp-2, read-out: RSV (HEp-2) EC50.
A short description of data set [4]: Cytotoxicity in Huh7 cells (no viral infection). It is filed as cell-based. As to conditions: human, without viral infection, read-out: HCoV OC43 (Huh7) CC50. Here is the method:
(§1) Determination of the inhibitory activity of compounds on the replication of respiratory syncytial virus (RSV), human coronavirus OC43, influenza A virus, and Zika virus by Cytopathogenic effect (CPE): the experimental cells were inoculated at a certain cell density to 96 well cell culture plates, and cultured overnight in a 5% CO2, 37° C. incubator. The compounds and viruses were added the next day. Depending on the tested virus, the cells were cultured in an incubator for 3-7 days under 5% CO2, 33° C. or 37° C., until 80-95% of the cells in the virus-infected control wells without compound had pathological changes. Cell viability in each well was then detected with CellTiter-Glo or CCK-8. […] The cytotoxicity test method is the same as the corresponding antiviral test method, but without viral infection.
(§2) The antiviral activity and cytotoxicity of the compound are represented by the inhibition rate (%) of the compound on the virus-induced cellular viral effect and the cell viability (%), respectively. Calculation equations are as follows:
(§3) Cell viability (%)=(reading value of test well−average value of medium control)/(average value of cell control−average value of medium control)×100;
(§4) EC50 and CC50 values were calculated by Prism software, and the inhibition curve fitting method was “log (inhibitor) vs. response—Variable slope”.

The next data set can be described thus: in vitro. Conditions: human.
For a further data set, the system named is dengue virus (DENV). The data set is described as follows: Dengue virus plaque reduction assay in Vero cells. It is filed as cell-based. As to conditions: read-out: DENV (Vero) Inhibition rate at 5 μM. Here is the method:
Determination of the inhibitory activity of compounds against dengue virus by plaque reduction assay: Vero cells were inoculated into 6-well cell culture plates at a density of 600,000 cells per well, and cultured overnight in a 5% CO2, 37° C. incubator. The compounds and virus (40-50 PFU/well) were added the next day. The cells were cultured in an incubator at 5% CO2 and 37° C. for 2 hours, then the supernatant was aspirated, and the low-melting point agarose culture medium containing the corresponding concentration of the compound was added. The cells were cultured in an incubator at 5% CO2, 33° C. or 37° C. for 6-7 days, until obvious virus plaques could be observed in the virus-infected control wells without compound under the microscope. Cells were fixed with 4% paraformaldehyde and stained with crystal violet. The number of plaques in each well was calculated. Cytotoxicity experiments were performed in parallel with antiviral experiments. Vero cells were inoculated into 96-well cell culture plates at a density of 20,000 cells per well, and cultured overnight in a 5% CO2, 37° C. incubator. The compounds were added the next day (1-5 concentration points, single point). The cells were cultured in an incubator at 5% CO2, 33° C. or 37° C. for 6-7 days. Cell viability in each well was then detected with CCK-8.

The conditions of data set [5]: in monkeys; cited from earlier work.
In a further data set the test system is influenza A virus (H3N2). The data set is described as follows: Inhibition of influenza virus H3N2 replication by CPE in MDCK. It is filed as cell-based. Conditions: MDCK cells.
For the next data set, the system named is Zika virus. The data set is described as follows: Inhibition of Zika virus replication by CPE in Huh7. It is filed as cell-based. As to conditions: Huh-7, read-out: Zika (Huh7) Inhibition rate.
A short description of data set [6]: Cytotoxicity in MDCK cells (no viral infection). It is filed as cell-based. As to conditions: dog, without viral infection, read-out: H3N2 (MDCK) CC50. Here is the method:
as §1, §2, §3, §4

Data set [7] has as its system porcine epidemic diarrhea virus (PEDV). The data set is described as follows: Inhibition of PEDV replication in Vero cells by fluorescent quantitative PCR. As to conditions: 36 h, read-out: PEDV (Vero) EC50.

As usually defined, the EC50 is the concentration that produces a half-maximal response. As usually defined, the inhibition is the drop in the measured response relative to a control, in per cent.

Where only a bound is given, the exact number is not on record here.

Take `[2H]c1cc([C@]2(C#N)O[C@H](CO)[C@@H](O)[C@H]2O)n2ncnc(N)c12` [Compound C22-0]: the CC50 (in [1]; in [4]; in “in vitro”) was over 10000 nM throughout. In addition, the EC50 in data set [2] came to 460 nM; in data set [3] it was 560 nM. Further, the inhibition at 5 µM in the data set on dengue virus (DENV) amounted to 100%.
For `O=c1nc(NO)ccn1[C@@H]1O[C@H](CO)[C@@H](O)[C@H]1O` [NHC, β-d-N4-hydroxycytidine], the CC50 (in data set [1]; in “in vitro”; in data set [6]) was over 10000 nM throughout. Also, the EC50 is 300 nM in data set [2], 4600 nM in data set [3], 770 nM in the data set with influenza A virus (H3N2) and 1170 nM in data set [7]. For the same compound, the oral bioavailability result in [5] is on record as “less than 10%”. Besides, the inhibition at 5 µM with dengue virus (DENV) turned out to be 40%; in the data set with Zika virus, 66%.
